The supplement of paper PMC10307832

Key:
Assay in all cases: relative viability (nuclei count vs DMSO), 5 days (fraction); higher = more cells survive
[1] = compound: C1=CC(=CC=C1C2=CC(=C(S2)NC(=O)N)C(=O)N)F [TPCA-1] + N=C(N)NC(=N)NCCc1ccccc1 [Phenformin] (partner 250 µM)
Outline: (§1)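 Nuclei were stained with Hoechst during a one-step fixation (final 0.05% Triton X-100, 1% formaldehyde, 1 ug/ml Hoechst) carried out 5 days after dosing, then counted on 4× images. The cells, lung cancer lines in 1536-well plates, had been dosed by pin tool the day after seeding with one drug alone or a fixed anchor-drug dose plus five library-drug doses (not always all listed) in √10 steps. Relative viability is the nuclei count in treated wells divided by that in vehicle wells, and each value is the median of duplicate plates.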

[2] = compound: C1=CC(=CC=C1C2=CC(=C(S2)NC(=O)N)C(=O)N)F [TPCA-1] + C[C@@H](Oc1cc(-c2cnn(C3CCNCC3)c2)cnc1N)c1c(Cl)ccc(F)c1Cl [Crizotinib] (partner 1 µM)
Outline: as §1

[3] = compound: C1/C(=C\C2=CC=CS2)/C(=O)/C(=C/C3=CC=CS3)/C1 + N=C(N)NC(=N)NCCc1ccccc1 [Phenformin] (partner 250 µM)
Outline: as §1

[4] = compound: C[C@]12O[C@H](C[C@]1(O)CO)n1c3ccccc3c3c4c(c5c6ccccc6n2c5c31)CNC4=O [Lestaurtinib] + Cc1cc(Nc2cc(N3CCN(C)CC3)nc(Sc3ccc(NC(=O)C4CC4)cc3)n2)n[nH]1 [Tozasertib] (partner 0.1 µM)
Outline: as §1

## NCI-H1355
[1]; first compound 0.04 µM
  relative viability: 0.515
[1]; first compound 0.1265 µM
  relative viability: 0.415
[1]; first compound 0.4 µM
  relative viability: 0.47
[1]; first compound 1.265 µM
  relative viability: 0.393
[1]; first compound 4 µM
  relative viability: 0.305
[2]; first compound 0.04 µM
  relative viability: 1.1
[2]; first compound 0.1265 µM
  relative viability: 1.03
[2]; first compound 0.4 µM
  relative viability: 1.11
[2]; first compound 1.265 µM
  relative viability: 0.977
[2]; first compound 4 µM
  relative viability: 0.712
[3]; first compound 0.2 µM
  relative viability: 0.512
[3]; first compound 0.6325 µM
  relative viability: 0.492
[3]; first compound 2 µM
  relative viability: 0.465
[3]; first compound 6.325 µM
  relative viability: 0.397
[3]; first compound 20 µM
  relative viability: 0.434
[4]; first compound 0.005 µM
  relative viability: 0.51
[4]; first compound 0.01581 µM
  relative viability: 0.52
[4]; first compound 0.05 µM
  relative viability: 0.377
[4]; first compound 0.1581 µM
  relative viability: 0.441
[4]; first compound 0.5 µM
  relative viability: 0.287

## EKVX
[1]; first compound 0.04 µM
  relative viability: 0.215
[1]; first compound 0.1265 µM
  relative viability: 0.22
[1]; first compound 0.4 µM
  relative viability: 0.252
[1]; first compound 1.265 µM
  relative viability: 0.198
[1]; first compound 4 µM
  relative viability: 0.125
[2]; first compound 0.04 µM
  relative viability: 0.979
[2]; first compound 0.1265 µM
  relative viability: 0.777
[2]; first compound 0.4 µM
  relative viability: 1.04
[2]; first compound 1.265 µM
  relative viability: 0.97
[2]; first compound 4 µM
  relative viability: 0.738
[3]; first compound 0.2 µM
  relative viability: 0.252
[3]; first compound 0.6325 µM
  relative viability: 0.247
[3]; first compound 2 µM
  relative viability: 0.218
[3]; first compound 6.325 µM
  relative viability: 0.231
[3]; first compound 20 µM
  relative viability: 0.249
[4]; first compound 0.005 µM
  relative viability: 0.345
[4]; first compound 0.01581 µM
  relative viability: 0.432
[4]; first compound 0.05 µM
  relative viability: 0.417
[4]; first compound 0.1581 µM
  relative viability: 0.378
[4]; first compound 0.5 µM
  relative viability: 0.395

## NCI-H441
[1]; first compound 0.04 µM
  relative viability: 1.15
[1]; first compound 0.1265 µM
  relative viability: 0.688
[1]; first compound 0.4 µM
  relative viability: 0.934
[1]; first compound 1.265 µM
  relative viability: 0.703
[1]; first compound 4 µM
  relative viability: 0.283
[2]; first compound 0.04 µM
  relative viability: 0.894
[2]; first compound 0.1265 µM
  relative viability: 0.646
[2]; first compound 0.4 µM
  relative viability: 0.618
[2]; first compound 1.265 µM
  relative viability: 0.452
[2]; first compound 4 µM
  relative viability: 0.379
[3]; first compound 0.2 µM
  relative viability: 0.826
[3]; first compound 0.6325 µM
  relative viability: 1.01
[3]; first compound 2 µM
  relative viability: 0.955
[3]; first compound 6.325 µM
  relative viability: 0.77
[3]; first compound 20 µM
  relative viability: 0.772
[4]; first compound 0.005 µM
  relative viability: 0.711
[4]; first compound 0.01581 µM
  relative viability: 0.719
[4]; first compound 0.05 µM
  relative viability: 0.537
[4]; first compound 0.1581 µM
  relative viability: 0.651
[4]; first compound 0.5 µM
  relative viability: 0.442

## NCI-H1975
[1]; first compound 0.04 µM
  relative viability: 0.445
[1]; first compound 0.1265 µM
  relative viability: 0.392
[1]; first compound 0.4 µM
  relative viability: 0.435
[1]; first compound 1.265 µM
  relative viability: 0.405
[1]; first compound 4 µM
  relative viability: 0.312
[2]; first compound 0.04 µM
  relative viability: 0.985
[2]; first compound 0.1265 µM
  relative viability: 0.863
[2]; first compound 0.4 µM
  relative viability: 0.972
[2]; first compound 1.265 µM
  relative viability: 0.939
[2]; first compound 4 µM
  relative viability: 0.691
[3]; first compound 0.2 µM
  relative viability: 0.399
[3]; first compound 0.6325 µM
  relative viability: 0.388
[3]; first compound 6.325 µM
  relative viability: 0.37
[3]; first compound 20 µM
  relative viability: 0.411
[4]; first compound 0.005 µM
  relative viability: 0.943
[4]; first compound 0.01581 µM
  relative viability: 1.02
[4]; first compound 0.05 µM
  relative viability: 0.715
[4]; first compound 0.1581 µM
  relative viability: 0.552
[4]; first compound 0.5 µM
  relative viability: 0.486

## HCC-78
[1]; first compound 0.04 µM
  relative viability: 0.724
[1]; first compound 0.1265 µM
  relative viability: 0.732
[1]; first compound 0.4 µM
  relative viability: 0.657
[1]; first compound 1.265 µM
  relative viability: 0.693
[1]; first compound 4 µM
  relative viability: 0.436
[2]; first compound 0.04 µM
  relative viability: 0.362
[2]; first compound 0.1265 µM
  relative viability: 0.341
[2]; first compound 0.4 µM
  relative viability: 0.345
[2]; first compound 1.265 µM
  relative viability: 0.338
[2]; first compound 4 µM
  relative viability: 0.307
[3]; first compound 0.2 µM
  relative viability: 0.654
[3]; first compound 0.6325 µM
  relative viability: 0.78
[3]; first compound 2 µM
  relative viability: 0.945
[3]; first compound 6.325 µM
  relative viability: 0.603
[3]; first compound 20 µM
  relative viability: 0.695
[4]; first compound 0.005 µM
  relative viability: 0.434
[4]; first compound 0.01581 µM
  relative viability: 0.363
[4]; first compound 0.05 µM
  relative viability: 0.436
[4]; first compound 0.1581 µM
  relative viability: 0.353
[4]; first compound 0.5 µM
  relative viability: 0.183

## NCI-H2085
[1]; first compound 0.04 µM
  relative viability: 0.837
[1]; first compound 0.1265 µM
  relative viability: 0.616
[1]; first compound 0.4 µM
  relative viability: 0.693
[1]; first compound 1.265 µM
  relative viability: 0.555
[1]; first compound 4 µM
  relative viability: 0.389
[2]; first compound 0.04 µM
  relative viability: 0.921
[2]; first compound 0.1265 µM
  relative viability: 0.793
[2]; first compound 0.4 µM
  relative viability: 0.872
[2]; first compound 1.265 µM
  relative viability: 0.765
[2]; first compound 4 µM
  relative viability: 0.78
[3]; first compound 0.2 µM
  relative viability: 0.81
[3]; first compound 0.6325 µM
  relative viability: 0.791
[3]; first compound 2 µM
  relative viability: 0.839
[3]; first compound 6.325 µM
  relative viability: 0.619
[3]; first compound 20 µM
  relative viability: 0.644
[4]; first compound 0.005 µM
  relative viability: 0.828
[4]; first compound 0.01581 µM
  relative viability: 0.83
[4]; first compound 0.05 µM
  relative viability: 0.75
[4]; first compound 0.1581 µM
  relative viability: 0.882
[4]; first compound 0.5 µM
  relative viability: 0.56

## H3255
[1]; first compound 0.04 µM
  relative viability: 0.39
[1]; first compound 0.1265 µM
  relative viability: 0.39
[1]; first compound 0.4 µM
  relative viability: 0.353
[1]; first compound 1.265 µM
  relative viability: 0.356
[1]; first compound 4 µM
  relative viability: 0.316
[2]; first compound 0.04 µM
  relative viability: 0.815
[2]; first compound 0.1265 µM
  relative viability: 0.882
[2]; first compound 0.4 µM
  relative viability: 0.863
[2]; first compound 1.265 µM
  relative viability: 0.674
[2]; first compound 4 µM
  relative viability: 0.848
[3]; first compound 0.2 µM
  relative viability: 0.377
[3]; first compound 0.6325 µM
  relative viability: 0.324
[3]; first compound 2 µM
  relative viability: 0.352
[3]; first compound 6.325 µM
  relative viability: 0.34
[3]; first compound 20 µM
  relative viability: 0.309
[4]; first compound 0.005 µM
  relative viability: 0.611
[4]; first compound 0.01581 µM
  relative viability: 0.884
[4]; first compound 0.05 µM
  relative viability: 0.633
[4]; first compound 0.1581 µM
  relative viability: 0.587
[4]; first compound 0.5 µM
  relative viability: 0.5

## NCI-H2087
[1]; first compound 0.04 µM
  relative viability: 0.475
[1]; first compound 0.1265 µM
  relative viability: 0.417
[1]; first compound 0.4 µM
  relative viability: 0.417
[1]; first compound 1.265 µM
  relative viability: 0.351
[1]; first compound 4 µM
  relative viability: 0.154
[2]; first compound 0.04 µM
  relative viability: 0.801
[2]; first compound 0.1265 µM
  relative viability: 0.828
[2]; first compound 0.4 µM
  relative viability: 0.781
[2]; first compound 1.265 µM
  relative viability: 0.867
[2]; first compound 4 µM
  relative viability: 0.283
[3]; first compound 0.2 µM
  relative viability: 0.5
[3]; first compound 0.6325 µM
  relative viability: 0.546
[3]; first compound 2 µM
  relative viability: 0.553
[3]; first compound 6.325 µM
  relative viability: 0.393
[3]; first compound 20 µM
  relative viability: 0.431
[4]; first compound 0.005 µM
  relative viability: 0.321
[4]; first compound 0.01581 µM
  relative viability: 0.378
[4]; first compound 0.05 µM
  relative viability: 0.208
[4]; first compound 0.1581 µM
  relative viability: 0.265
[4]; first compound 0.5 µM
  relative viability: 0.212
